Laboratory results from patent publication US4599360A, “Ophthalmic anti-inflammatory agents” (Sankyo Company Limited, priority 1983, dated 1986).

Columns and labels:
eye [1] = assay: Eye irritation test (Draize method, evaluated by method of Kay and Calandra); format: in vivo, male Japanese rabbit; parameters: key: Draize irritation scores per Kay–Calandra method, mean of 4 rabbits
Experimental: The irritation to the eyes caused by relatively highly concentrated solutions of the compounds of the invention was determined by the Draize method [J. H. Draize et al. J. Pharmacol. Exp. Ther., 82, 377 (1944)] and evaluated by the method of Kay and Calandra [J. H. Kay and J. C. Calandra, J. Soc. Cosmet. Chem., 13, 281 (1962)].
The test solution employed in the present experiment was a simple solution of 10% or 20% by weight of the test compound dissolved in distilled water for injections and adjusted to pH 7 to 8 as required.
Specifically, a male Japanese rabbit of body weight 2.5-3.0 kg was placed in a pillory to fix its head. A single dose of 0.1 ml of the test solution was instilled into its right eye. The symptoms experienced by the anterior portion of the right eye were observed over a period of seven days and the irritation observed was scored. The results are shown in Table 2, in each case averaged over the four rabbits in each test group.

[2] = Acute toxicity, oral administration; parameters: species or system RFVL type mice; conditions: mouse, in vivo
eye [3] = conditions: cited from earlier work
[4] = result in words; cited from earlier work

Row | SMILES | Average irritation score, average (eye [1]; 10% solution, 0.1 ml, 1 hour) | Average irritation score, conjunctiva (eye [1]; 10% solution, 0.1 ml, 1 hour) | Average irritation score, cornea (eye [1]; 10% solution, 0.1 ml, 1 hour) | Average irritation score, iris (eye [1]; 10% solution, 0.1 ml, 1 hour) | Average irritation score, average (eye [1]; 10% solution, 0.1 ml, 24 hours) | Average irritation score, conjunctiva (eye [1]; 10% solution, 0.1 ml, 24 hours) | Average irritation score, cornea (eye [1]; 10% solution, 0.1 ml, 24 hours) | Average irritation score, iris (eye [1]; 10% solution, 0.1 ml, 24 hours) | Average irritation score, average (eye [1]; 10% solution, 0.1 ml, 48 hours) | Average irritation score, conjunctiva (eye [1]; 10% solution, 0.1 ml, 48 hours) | Average irritation score, cornea (eye [1]; 10% solution, 0.1 ml, 48 hours) | Average irritation score, iris (eye [1]; 10% solution, 0.1 ml, 48 hours) | Average irritation score, average (eye [1]; 10% solution, 0.1 ml, 72 hours) | Average irritation score, conjunctiva (eye [1]; 10% solution, 0.1 ml, 72 hours) | Average irritation score, cornea (eye [1]; 10% solution, 0.1 ml, 72 hours) | Average irritation score, iris (eye [1]; 10% solution, 0.1 ml, 72 hours) | Average irritation score, average (eye [1]; 10% solution, 0.1 ml, 96 hours) | Average irritation score, conjunctiva (eye [1]; 10% solution, 0.1 ml, 96 hours) | Average irritation score, cornea (eye [1]; 10% solution, 0.1 ml, 96 hours) | Average irritation score, iris (eye [1]; 10% solution, 0.1 ml, 96 hours) | also measured
1 | CC(C(=O)[O-])c1ccc(CC2CCCC2=O)cc1.[Na+] (stereo not shown) |  |  |  |  |  |  |  |  |  |  |  |  |  |  |  |  |  |  |  |  | Average irritation score, cornea (eye [1]; rabbit, in vivo): 0; Average irritation score, iris (eye [1]; rabbit, in vivo): 0; LD50 ([2]; female mice): 3150 mg/kg; LD50 ([2]; male mice): 3030 mg/kg
2 | CC(C(=O)[O-])c1ccc(C[C@@H]2CCC[C@H]2O)cc1.[Na+] (relative stereo) | 1.3 | 1.3 | 0 | 0 | 0 | 0 | 0 | 0 | 0 | 0 | 0 | 0 | 0 | 0 | 0 | 0 | 0 | 0 | 0 | 0 | Average irritation score, average (eye [1]; 10% solution, 0.1 ml, 7 days): 0; Average irritation score, conjunctiva (eye [1]; 10% solution, 0.1 ml, 7 days): 0; Average irritation score, cornea (eye [1]; 10% solution, 0.1 ml, 7 days): 0; Average irritation score, iris (eye [1]; 10% solution, 0.1 ml, 7 days): 0
3 | CC(C(=O)[O-])c1ccc(C=C2CCCCC2=O)cc1.[Na+] (stereo not shown) [Compound B, sodium 2-[4-(2-oxocyclohexylidenemethyl)phenyl]propionate] | 1.3 | 1.3 | 0 | 0 | 0 | 0 | 0 | 0 | 0 | 0 | 0 | 0 | 0 | 0 | 0 | 0 | 0 | 0 | 0 | 0 | Average irritation score, average (eye [1]; 10% solution, 0.1 ml, 7 days): 0; Average irritation score, conjunctiva (eye [1]; 10% solution, 0.1 ml, 7 days): 0; Average irritation score, cornea (eye [1]; 10% solution, 0.1 ml, 7 days): 0; Average irritation score, iris (eye [1]; 10% solution, 0.1 ml, 7 days): 0
4 | CC(C)Cc1ccc(C(C)C(=O)O)cc1 (stereo not shown) [Ibuprofen, ibuprofen] |  |  |  |  |  |  |  |  |  |  |  |  |  |  |  |  |  |  |  |  | adverse effects upon the eye reported in the literature (eye [3]): a variety of visual defects, including toxic amblyopia
5 | COC(=O)c1ccccc1O [methyl salicylate] |  |  |  |  |  |  |  |  |  |  |  |  |  |  |  |  |  |  |  |  | toxicity for internal administration [4]: too toxic for internal administration
6 | CCCCC1C(=O)N(c2ccccc2)N(c2ccccc2)C1=O [phenylbutazone] |  |  |  |  |  |  |  |  |  |  |  |  |  |  |  |  |  |  |  |  | adverse effects upon the eye reported in the literature (eye [3]): conjunctivitis, toxic amblyopia, Stevens-Johnson syndrome, adhesion of lids to eyeballs, gross scarring of lids, corneal ulceration and scarring, vascularisation of the cornea, loss of vision and possible retinal haemorrhage
